Results as given in patent US7138361B2, “Herbicidal heterocycles” (E. I. du Pont de Nemours and Company, priority 2000, dated 2006).

Experiments:
Assay type in all cases: in vivo
Sunflower [1] = experiment: Test C preemergence; conditions: scale 0 to 100
[2] = system: wheat (Triticum aestivum); experiment: Test B postemergence
Method in brief: (§1)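 Ratings on a 0 to 100 visual scale (100 complete control) compare treated plants with controls 13 to 15 days after application. Treatments were pre- or postemergence sprays of compound in non-phytotoxic solvent with surfactant.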

[3] = system: giant foxtail (Setaria faberii); experiment: Test B postemergence
Method in brief: as §1

[4] = system: velvetleaf (Abutilon theophrasti); experiment: Test B postemergence
Method in brief: as §1

corn (Zea mays) = experiment: Test B postemergence
Method in brief: as §1

soybean (Glycine max) = experiment: Test C preemergence
Method in brief: (§2)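 Plants held in greenhouse for 12–14 days post-application are scored by eye against controls on a 0–100 control scale. Application timing: preemergence on sown seed, or postemergence on 2–18 cm plants.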

[5] = system: yellow nutsedge (Cyperus esculentus); experiment: Test C preemergence
Method in brief: as §2

[6] = system: giant foxtail (Setaria faberii); experiment: Test C preemergence
Method in brief: as §2

Sunflower [7] = experiment: Test C preemergence; conditions: Rate 125 g/ha; scale 0 to 100, 0 no effect, 100 complete control
[8] = system: lambsquarters (Chenopodium album); experiment: Test C preemergence
Method in brief: as §2

[9] = system: velvetleaf (Abutilon theophrasti); experiment: Test C preemergence
Method in brief: as §2

[10] = system: common ragweed (Ambrosia elatior); experiment: Test C preemergence
Method in brief: as §2

[11] = system: cocklebur (Xanthium strumarium); experiment: Test C preemergence
Method in brief: as §2

[12] = system: crabgrass (Digitaria sanguinalis); experiment: Test C preemergence
Method in brief: as §2

[13] = system: goosegrass (Eleusine indica); experiment: Test C preemergence
Method in brief: as §2

[14] = system: bermudagrass (Cynodon dactylon); experiment: Test C preemergence
Method in brief: as §2

[15] = system: woolly cupgrass (Eriochloa villosa); experiment: Test C preemergence
Method in brief: as §2

[16] = system: pigweed (Amaranthus retroflexus); experiment: Test C preemergence
Method in brief: as §2

[17] = system: johnsongrass (Sorghum halepense); experiment: Test C preemergence
Method in brief: as §2

Nightshade = experiment: Test C preemergence
[18] = Rate 125 g/ha, scale 0 to 100, 0 no effect, 100 complete control
[19] = preemergence, Rate 62 g/ha, scale 0 to 100
[20] = preemergence, Rate 500 g/ha, visual evaluation after 12 to 14 days
[21] = preemergence, Rate 250 g/ha, scale 0 to 100, 0 no effect, 100 complete control
[22] = Rate 250 g/ha, scale 0 to 100, 0 no effect, 100 complete control
[23] = Rate 500 g/ha, scale 0 (no effect) to 100 (complete control), 13 to 15 days
[24] = preemergence, Rate 31 g/ha, scale 0 to 100

CCC(C)c1ccn(C2OCN(c3cccc(OC(F)F)c3)C2=O)n1 (centres unmarked) [Compound 134]
Plant response rating, Sunflower (Sunflower [1]; Rate 62 g/ha): 0
Plant response rating, Wheat [2, 18]: 0
Plant response rating, Foxtail, Giant [3, 18]: 30
Plant response rating, Velvetleaf [4, 18]: 0
Plant response rating, Corn (corn (Zea mays); [18]): 0
Plant response rating, Corn (corn (Zea mays); Rate 500 g/ha, scale 0 to 100, 0 is no effect, 100 is complete control, 13 to 15 days): 20
Plant response rating, Soybean (soybean (Glycine max); [18]): 0
Plant response rating, Soybean (soybean (Glycine max); [19]): 0
Plant response rating (0 to 100), Soybean (soybean (Glycine max); [20]): 20
Plant response rating, Soybean (soybean (Glycine max); [21]): 0
Plant response rating, Nutsedge [5, 18]: 70
Plant response rating, Nutsedge [5, 19]: 60
Plant response rating (0 to 100), Nutsedge [5, 20]: 100
Plant response rating, Nutsedge [5, 21]: 90
Plant response rating, Foxtail, Giant [6, 18]: 100
Plant response rating, Foxtail, Giant [6, 19]: 90
Plant response rating (0 to 100), Foxtail, Giant [6, 20]: 100
Plant response rating, Foxtail, Giant [6, 21]: 100
Plant response rating, Sunflower (Sunflower [7]): 0
Plant response rating, Lambsquarters [8, 18]: 100
Plant response rating, Lambsquarters [8, 19]: 100
Plant response rating (0 to 100), Lambsquarters [8, 20]: 100
Plant response rating, Lambsquarters [8, 21]: 100
Plant response rating, Velvetleaf [9, 18]: 20
Plant response rating, Velvetleaf [9, 19]: 20
Plant response rating (0 to 100), Velvetleaf [9, 20]: 20
Plant response rating, Velvetleaf [9, 21]: 20
Plant response rating, Ragweed, Common [10, 18]: 0
Plant response rating, Ragweed, Common [10, 19]: 0
Plant response rating (0 to 100), Ragweed, Common [10, 20]: 40
Plant response rating, Ragweed, Common [10, 21]: 0
Plant response rating, Cocklebur [11, 18]: 0
Plant response rating, Cocklebur [11, 19]: 0
Plant response rating (0 to 100), Cocklebur [11, 20]: 0
Plant response rating, Cocklebur [11, 21]: 0
Plant response rating, Crabgrass [12, 18]: 100
Plant response rating, Crabgrass [12, 19]: 100
Plant response rating (0 to 100), Crabgrass [12, 20]: 100
Plant response rating, Crabgrass [12, 21]: 100
Plant response rating, Goosegrass [13, 18]: 100
Plant response rating, Goosegrass [13, 19]: 100
Plant response rating (0 to 100), Goosegrass [13, 20]: 100
Plant response rating, Goosegrass [13, 21]: 100
Plant response rating, Bermudagrass [14, 18]: 100
Plant response rating, Bermudagrass [14, 19]: 100
Plant response rating (0 to 100 where 0 is no effect and 100 is complete control), Bermudagrass [14, 20]: 100
Plant response rating, Bermudagrass [14, 21]: 100
Plant response rating, Cupgrass, Woolly [15, 18]: 100
Plant response rating, Cupgrass, Woolly [15, 19]: 100
Plant response rating (0 to 100), Cupgrass, Woolly [15, 20]: 100
Plant response rating, Cupgrass, Woolly [15, 21]: 100
Plant response rating, Pigweed [16, 18]: 100
Plant response rating, Pigweed [16, 19]: 100
Plant response rating (0 to 100), Pigweed [16, 20]: 100
Plant response rating, Pigweed [16, 21]: 100
Plant response rating, Johnsongrass [17, 18]: 100
Plant response rating, Johnsongrass [17, 19]: 100
Plant response rating (0 to 100), Johnsongrass [17, 20]: 100
Plant response rating, Johnsongrass [17, 21]: 100
Plant response rating, Nightshade (Nightshade; Rate 62 g/ha, scale 0 to 100): 0
Plant response rating, Nightshade (Nightshade; [18]): 10
Plant response rating, Nightshade (Nightshade; [22]): 30

Cc1cc(C)nc(N2CCC(n3ccc(C(C)(C)C)n3)C2=O)c1 (centres unmarked) [Compound 138]
Plant response rating, Sunflower (Sunflower [1]; Rate 31 g/ha): 0
Plant response rating, Sunflower (Sunflower [1]; Rate 62 g/ha): 0
Plant response rating, Wheat [2, 18]: 0
Plant response rating, Wheat [2, 23]: 0
Plant response rating, Foxtail, Giant [3, 18]: 0
Plant response rating, Foxtail, Giant [3, 23]: 0
Plant response rating, Velvetleaf [4, 18]: 0
Plant response rating, Velvetleaf [4, 23]: 0
Plant response rating, Corn (corn (Zea mays); [18]): 0
Plant response rating, Corn (corn (Zea mays); [23]): 0
Plant response rating, Soybean (soybean (Glycine max); [18]): 60
Plant response rating, Soybean (soybean (Glycine max); [19]): 30
Plant response rating, Soybean (soybean (Glycine max); [21]): 100
Plant response rating, Nutsedge [5, 18]: 0
Plant response rating, Nutsedge [5, 24]: 0
Plant response rating, Nutsedge [5, 19]: 0
Plant response rating, Nutsedge [5, 21]: 40
Plant response rating, Foxtail, Giant [6, 18]: 100
Plant response rating, Foxtail, Giant [6, 24]: 50
Plant response rating, Foxtail, Giant [6, 19]: 80
Plant response rating, Foxtail, Giant [6, 21]: 100
Plant response rating, Sunflower (Sunflower [7]): 0
Plant response rating, Lambsquarters [8, 18]: 100
Plant response rating, Lambsquarters [8, 24]: 100
Plant response rating, Lambsquarters [8, 19]: 100
Plant response rating, Lambsquarters [8, 21]: 100
Plant response rating, Velvetleaf [9, 18]: 0
Plant response rating, Velvetleaf [9, 24]: 0
Plant response rating, Velvetleaf [9, 19]: 0
Plant response rating, Velvetleaf [9, 21]: 0
Plant response rating, Ragweed, Common [10, 18]: 0
Plant response rating, Ragweed, Common [10, 24]: 0
Plant response rating, Ragweed, Common [10, 19]: 0
Plant response rating, Ragweed, Common [10, 21]: 30
Plant response rating, Cocklebur [11, 18]: 0
Plant response rating, Cocklebur [11, 24]: 0
Plant response rating, Cocklebur [11, 19]: 0
Plant response rating, Cocklebur [11, 21]: 0
Plant response rating, Crabgrass [12, 18]: 100
Plant response rating, Crabgrass [12, 24]: 20
Plant response rating, Crabgrass [12, 19]: 70
Plant response rating, Crabgrass [12, 21]: 100
Plant response rating, Goosegrass [13, 18]: 90
Plant response rating, Goosegrass [13, 24]: 20
Plant response rating, Goosegrass [13, 19]: 80
Plant response rating, Goosegrass [13, 21]: 100
Plant response rating, Bermudagrass [14, 18]: 70
Plant response rating, Bermudagrass [14, 24]: 60
Plant response rating, Bermudagrass [14, 19]: 70
Plant response rating, Bermudagrass [14, 21]: 100
Plant response rating, Cupgrass, Woolly [15, 18]: 60
Plant response rating, Cupgrass, Woolly [15, 24]: 0
Plant response rating, Cupgrass, Woolly [15, 19]: 40
Plant response rating, Cupgrass, Woolly [15, 21]: 100
Plant response rating, Pigweed [16, 18]: 50
Plant response rating, Pigweed [16, 24]: 0
Plant response rating, Pigweed [16, 19]: 30
Plant response rating, Pigweed [16, 21]: 50
Plant response rating, Johnsongrass [17, 18]: 30
Plant response rating, Johnsongrass [17, 24]: 0
Plant response rating, Johnsongrass [17, 19]: 0
Plant response rating, Johnsongrass [17, 21]: 40
Plant response rating, Nightshade (Nightshade; Rate 31 g/ha, scale 0 to 100): 0
Plant response rating, Nightshade (Nightshade; Rate 62 g/ha, scale 0 to 100): 0
Plant response rating, Nightshade (Nightshade; [18]): 50
Plant response rating, Nightshade (Nightshade; [22]): 90
